Laboratory results from ChEMBL document CHEMBL1147010, “Aziridine-2,3-dicarboxylate inhibitors targeting the major cysteine protease of Trypanosoma brucei as lead trypanocidal agents” (Bioorg Med Chem Lett, 2006).
pIC50, pKi: −log10 of the molar value. ≈ marks a conversion by molar mass, not a printed value. Calls of active or inactive are those of the source. The calls are words filed in the database; no cut-off is given here.

Key:
[1] = system: J774; assay: Selectivity index, IC50 for J774.1/IC50 for Trypanosoma brucei brucei; assay type: functional
[2] = system: J774; assay: Cytotoxicity against J774.1 cell line after 48 hrs; assay type: functional, cell-based; conditions: Mus musculus, J774, 48 h
[3] = biological target: Rhodesain (Trypanosoma brucei rhodesiense) (UniProt Q95PM0); assay: Inhibition of Trypanosoma brucei rhodesiense rhodesain at 200 uM
Rhodesain (Trypanosoma brucei rhodesiense), sequence (Q95PM0 1-450): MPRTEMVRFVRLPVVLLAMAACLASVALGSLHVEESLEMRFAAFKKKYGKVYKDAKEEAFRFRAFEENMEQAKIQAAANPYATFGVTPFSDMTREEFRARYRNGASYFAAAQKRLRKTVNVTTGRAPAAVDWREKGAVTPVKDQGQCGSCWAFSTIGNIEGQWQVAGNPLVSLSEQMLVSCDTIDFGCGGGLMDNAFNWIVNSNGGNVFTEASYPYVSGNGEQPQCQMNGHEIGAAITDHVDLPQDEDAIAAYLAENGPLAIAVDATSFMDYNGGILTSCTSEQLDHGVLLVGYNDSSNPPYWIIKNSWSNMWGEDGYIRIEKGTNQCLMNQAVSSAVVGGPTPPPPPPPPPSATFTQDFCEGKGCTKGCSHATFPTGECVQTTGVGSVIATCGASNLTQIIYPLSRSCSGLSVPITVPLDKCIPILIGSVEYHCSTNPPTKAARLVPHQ

[4] = system: Trypanosoma brucei brucei; assay: Trypanocidal activity against Trypanosoma brucei brucei after 48 hrs; assay type: functional, organism-based
[5] = biological target: Rhodesain (Trypanosoma brucei rhodesiense, UniProt Q95PM0); assay: Inhibition of Trypanosoma brucei rhodesiense rhodesain
Rhodesain, sequence (Q95PM0 whole entry): as the sequence (Q95PM0 1-450) above

[6] = biological target: Rhodesain (Trypanosoma brucei rhodesiense) (UniProt Q95PM0); assay: Inhibition of Trypanosoma brucei rhodesiense rhodesain at 140 uM

Structure (SMILES)	Ratio IC50 [1]	pIC50 [2]	inhibition [3]	MIC [4]	pKi [5]	pIC50 [4]	inhibition [6]
Cl.NCCCC(N)(C(=O)O)C(F)F.O (centres undefined) [EFLORNITHINE HYDROCHLORIDE]	>44	< 3.00	30.7%	> 1000 µM			
CC(C)C[C@@H](NC(=O)OC(C)(C)C)C(=O)N1CCC[C@H](C(=O)N2[C@H](C(=O)OCc3ccccc3)[C@H]2C(=O)OCc2ccccc2)C1	>2.9	< 4.00			6.15	4.47	
CC(C)C[C@@H](NC(=O)OC(C)(C)C)C(=O)N1CCC[C@H]1C(=O)N1[C@H](C(=O)OCc2ccccc2)[C@H]1C(=O)OCc1ccccc1	>2.9	< 4.00			5.96	4.46	
Nc1nc(N)nc(Nc2ccc([As]3SCC(CO)S3)cc2)n1 (centres undefined) [MELARSOPROL]	1653	5.37	94.3%			8.59	
CC(C)C[C@H](NC(=O)OC(C)(C)C)C(=O)N1CCC[C@@H]1C(=O)N1[C@H](C(=O)OCc2ccccc2)[C@H]1C(=O)OCc1ccccc1	>3.2	< 4.00			5.92	4.50	
CCOC(=O)[C@H]1[C@H](C(=O)OCC)N1C(=O)[C@H]1CCCN(C(=O)[C@H](CC(C)C)NC(=O)OC(C)(C)C)C1		< 4.00			5.72	< 4.00	
CC(C)(C)OC(=O)NCC(=O)N1CCC[C@H]1C(=O)N1[C@H](C(=O)OCc2ccccc2)[C@H]1C(=O)OCc1ccccc1		< 4.00			5.51	< 4.00	
CC(C)C[C@H](NC(=O)OC(C)(C)C)C(=O)N1CCC[C@@H](C(=O)N2[C@H](C(=O)O)[C@H]2C(=O)O)C1							inactive
CCOC(=O)[C@H]1[C@H](C(=O)OCC)N1C(=O)[C@H]1CCN1C(=O)[C@H](CC(C)C)NC(=O)OC(C)(C)C	>4.8	< 4.00			5.51	4.69	
CC(C)(C)OC(=O)NCC(=O)N1CCC[C@@H]1C(=O)N1[C@H](C(=O)OCc2ccccc2)[C@H]1C(=O)OCc1ccccc1		< 4.00			5.80	< 4.00	
CC(C)C[C@H](NC(=O)OC(C)(C)C)C(=O)N1CC[C@@H]1C(=O)N1[C@H](C(=O)OCc2ccccc2)[C@H]1C(=O)OCc1ccccc1	1.2	4.43			6.10	4.51	
C[C@@H](NC(=O)[C@@H](Cc1ccccc1)NC(=O)OC(C)(C)C)C(=O)N1[C@H](C(=O)O)[C@H]1C(=O)O					5.30		
C[C@H](NC(=O)[C@H](Cc1ccccc1)NC(=O)OC(C)(C)C)C(=O)N1[C@H](C(=O)O)[C@H]1C(=O)O					6.30		
CC(C)C[C@H](NC(=O)OC(C)(C)C)C(=O)N1CCC[C@@H](C(=O)N2[C@H](C(=O)OCc3ccccc3)[C@H]2C(=O)OCc2ccccc2)C1	>3.9	< 4.00			6.22	4.59	
CCOC(=O)[C@H]1[C@H](C(=O)OCC)N1C(=O)CCCCCNC(=O)CCCC[C@@H]1SC[C@@H]2NC(=O)N[C@@H]21		< 4.00			6.22	< 4.00	
CCOC(=O)[C@@H]1[C@@H](C(=O)OCC)N1C(=O)[C@@H]1CCCN1C(=O)[C@H](CC(C)C)NC(=O)OC(C)(C)C		< 4.00			5.51	< 4.00	
C[C@@H](NC(=O)[C@H](Cc1ccccc1)NC(=O)OC(C)(C)C)C(=O)N1[C@H](C(=O)O)[C@H]1C(=O)O					6.10		
CC(C)C[C@H](NC(=O)OC(C)(C)C)C(=O)N1CCC[C@H](C(=O)N2[C@H](C(=O)OCc3ccccc3)[C@H]2C(=O)OCc2ccccc2)C1	>3.9	< 4.00			6.22	4.59	
N=C(N)c1ccc(OCCCCCOc2ccc(C(=N)N)cc2)cc1.O=S(=O)(O)CCO.O=S(=O)(O)CCO [PENTAMIDINE ISETHIONATE]	14345	4.38	27.9%			8.54	
C[C@H](NC(=O)[C@@H](Cc1ccccc1)NC(=O)OC(C)(C)C)C(=O)N1[C@H](C(=O)O)[C@H]1C(=O)O					7.00		
CCOC(=O)[C@H]1[C@H](C(=O)OCC)N1C(=O)[C@@H]1CCN1C(=O)[C@H](CC(C)C)NC(=O)OC(C)(C)C	>4.8	< 4.00			5.51	4.69	
CC(C)(C)OC(=O)NCC(=O)N1CCC[C@@H](C(=O)N2[C@H](C(=O)OCc3ccccc3)[C@H]2C(=O)OCc2ccccc2)C1	>2.7	< 4.00			5.96	4.44	
CCOC(=O)[C@H]1[C@H](C(=O)OCC)N1C(=O)C1CCN(C(=O)[C@H](CC(C)C)NC(=O)OC(C)(C)C)CC1		< 4.00			5.48	< 4.00	
CC(C)(C)OC(=O)NCC(=O)N1CCC[C@H](C(=O)N2[C@H](C(=O)O)[C@H]2C(=O)O)C1							inactive

Structure (SMILES)	Ratio IC50 [1]	pIC50 [2]	inhibition [3]	MIC [4]	pKi [5]	pIC50 [4]	inhibition [6]
CC1CS(=O)(=O)CCN1/N=C/c1ccc([N+](=O)[O-])o1 (centres undefined) [NIFURTIMOX]	>58	< 3.70		200 µM (≈ 57.5 µg/mL)		5.47	
CCOC(=O)[C@@H]1[C@@H](C(=O)OCC)N1C(=O)[C@H]1CCCN(C(=O)[C@H](CC(C)C)NC(=O)OC(C)(C)C)C1		< 4.00			6.00	< 4.00	
CC(C)C[C@H](NC(=O)OC(C)(C)C)C(=O)N1CC[C@H]1C(=O)N1[C@H](C(=O)OCc2ccccc2)[C@H]1C(=O)OCc1ccccc1	1.2	4.43			6.10	4.51	
CC(C)C[C@H](NC(=O)OC(C)(C)C)C(=O)N1CCC[C@H]1C(=O)N1[C@H](C(=O)OCc2ccccc2)[C@H]1C(=O)OCc1ccccc1	>11.3	< 3.90		125 µM (≈ 77.7 µg/mL)	5.64	4.95	
CCOC(=O)[C@@H]1[C@@H](C(=O)OCC)N1C(=O)[C@@H]1CCCN(C(=O)[C@H](CC(C)C)NC(=O)OC(C)(C)C)C1		< 4.00			6.00	< 4.00	
C[C@H](NC(=O)[C@H](Cc1ccccc1)NC(=O)OC(C)(C)C)C(=O)N1[C@H](C(=O)OCc2ccccc2)[C@H]1C(=O)OCc1ccccc1	>3.7	< 4.00			5.72	4.57	
CCOC(=O)[C@@H]1[C@@H](C(=O)OCC)N1C(=O)[C@@H]1CN1C(=O)[C@@H](CC(C)C)NC(=O)OC(C)(C)C	>3.5	< 4.00			5.80	4.55	
CCOC(=O)[C@@H]1[C@@H](C(=O)OCC)N1C(=O)C1CCN(C(=O)[C@H](CC(C)C)NC(=O)OC(C)(C)C)CC1		< 4.00			5.85	< 4.00	
CC(C)C[C@@H](NC(=O)OC(C)(C)C)C(=O)N1CCC[C@@H](C(=O)N2[C@H](C(=O)O)[C@H]2C(=O)O)C1							inactive
CC(C)C[C@@H](NC(=O)OC(C)(C)C)C(=O)N1CCC[C@@H](C(=O)N2[C@H](C(=O)OCc3ccccc3)[C@H]2C(=O)OCc2ccccc2)C1	>2.9	< 4.00			6.15	4.47	
CC(C)C[C@@H](NC(=O)OC(C)(C)C)C(=O)N1CCC[C@H](C(=O)N2[C@H](C(=O)O)[C@H]2C(=O)O)C1							inactive
CC(C)(C)OC(=O)NCC(=O)N1CCCC[C@H]1C(=O)N1[C@H](C(=O)OCc2ccccc2)[C@H]1C(=O)OCc1ccccc1					6.15	4.56	
CC(C)C[C@H](NC(=O)OC(C)(C)C)C(=O)N1CCC[C@H]1C(=O)N1[C@H](C(=O)O)[C@H]1C(=O)O							inactive
CC(C)C[C@H](NC(=O)OC(C)(C)C)C(=O)N1CCC[C@H]1C(=O)N1[C@@H](C(=O)OCc2ccccc2)[C@@H]1C(=O)OCc1ccccc1	>11.5	< 3.90		125 µM (≈ 77.7 µg/mL)	6.30	4.96	
CC(C)(C)OC(=O)NCC(=O)N1CCC[C@H]1C(=O)N1[C@H](C(=O)O)[C@H]1C(=O)O		< 4.00			6.05	< 4.00	
CC(C)C[C@H](NC(=O)OC(C)(C)C)C(=O)N1CCC(C(=O)N2[C@H](C(=O)O)[C@H]2C(=O)O)CC1							inactive
C[C@@H](NC(=O)[C@H](Cc1ccccc1)NC(=O)OC(C)(C)C)C(=O)N1[C@H](C(=O)OCc2ccccc2)[C@H]1C(=O)OCc1ccccc1	>3.2	< 4.00			5.92	4.52	
CC(C)(C)OC(=O)NCC(=O)N1CCC[C@H](C(=O)N2[C@H](C(=O)OCc3ccccc3)[C@H]2C(=O)OCc2ccccc2)C1	>2.7	< 4.00			5.96	4.44	
CC(C)C[C@H](NC(=O)OC(C)(C)C)C(=O)N1CCC[C@H](C(=O)N2[C@H](C(=O)O)[C@H]2C(=O)O)C1							inactive
CC(C)C[C@@H](NC(=O)OC(C)(C)C)C(=O)N1CCC[C@@H]1C(=O)N1[C@H](C(=O)OCc2ccccc2)[C@H]1C(=O)OCc1ccccc1	>2.8	< 4.00			5.55	4.45	
CCOC(=O)[C@H]1[C@H](C(=O)OCC)N1C(=O)[C@@H]1CCCN(C(=O)[C@H](CC(C)C)NC(=O)OC(C)(C)C)C1		< 4.00			5.72	< 4.00	
C[C@@H](NC(=O)[C@@H](Cc1ccccc1)NC(=O)OC(C)(C)C)C(=O)N1[C@H](C(=O)OCc2ccccc2)[C@H]1C(=O)OCc1ccccc1	>3.8	< 4.00			5.41	4.59	
CC(C)(C)OC(=O)NCC(=O)N1CCC[C@@H](C(=O)N2[C@H](C(=O)O)[C@H]2C(=O)O)C1							inactive
CC(C)(C)OC(=O)NCC(=O)N1CCC[C@@H]1C(=O)N1[C@H](C(=O)O)[C@H]1C(=O)O		< 4.00				< 4.00	inactive
